Consider one molecule from US9067920B2, “Compounds useful for inhibiting Chk1” (Eli Lilly and Company, priority 2010, dated 2015).

Counter-ions that a name gives are not always drawn.

This test deals with T1, Chk1 (Homo sapiens, UniProt O14757).
T1 sequence (O14757 1-476): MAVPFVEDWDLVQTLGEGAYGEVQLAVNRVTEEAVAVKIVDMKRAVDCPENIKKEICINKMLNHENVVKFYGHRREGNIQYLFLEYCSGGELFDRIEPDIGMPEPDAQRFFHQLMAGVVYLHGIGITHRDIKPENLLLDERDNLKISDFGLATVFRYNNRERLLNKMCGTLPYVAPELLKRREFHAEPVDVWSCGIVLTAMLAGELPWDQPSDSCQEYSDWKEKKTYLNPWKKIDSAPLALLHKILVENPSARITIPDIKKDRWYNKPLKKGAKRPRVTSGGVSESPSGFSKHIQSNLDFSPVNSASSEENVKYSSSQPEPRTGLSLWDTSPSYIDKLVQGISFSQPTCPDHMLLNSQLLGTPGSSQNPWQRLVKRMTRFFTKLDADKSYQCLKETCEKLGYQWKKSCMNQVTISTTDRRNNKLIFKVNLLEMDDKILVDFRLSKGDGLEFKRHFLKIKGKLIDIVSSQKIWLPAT
In words: Chk1 in vivo target inhibition assay (Calu-6 xenograft, phospho-Chk1 ser296). Also on record: from tissue; host or cells: Calu-6 xenograft tumour from nude mice; species or system nude mice. To be noted: Calu-6 tumors, oral, 6 h after gemcitabine 150 mg/kg ip, 2 h post dose. As for the experimental part: Calu-6 cells are cultured in growth media (MEM with Earle's Balanced Salt Solution with L-glutamine supplemented with […], 1×MEM non-essential amino acids, 1× sodium pyruvate) and expanded. Cells are harvested and washed twice with phosphate buffered saline and 1×10^6 cells in growth media (without serum) are mixed with equal volume of BD Matrigel™ matrix, then injected subcutaneously into the flank of pre-irradiated (4.5 Gy) nude mice (athymic nude). At day 15 after implant (tumor size=150-200 mm^3), gemcitabine formulated fresh in saline daily is administered to animals by intraperitoneal route at 150 mg/kg dose. […] Antigen-antibody-reporter conjugates immobilized on the membrane are detected with the Super Signal Western Femto HRP-detection reagent.
Signals are detected and captured using the FUJI LAS-4000 imaging system. Phospho-Chk1(ser296) band intensities are calculated using “Total Lab” software (Nonlinear Dynamics). The percent inhibition of the gemcitabine induced Chk1 autophosphorylation is calculated by using the following formula: % inhibition=(sample-phospho-Chk1 band—intensity average gemcitabine (Max) positive control-phospho-Chk1 band intensity)/(average negative control (Min)-phosphor-Chk1 band intensity—average gemcitabine (Max) positive control-phospho-Chk1 band intensity)×100.

Turning to `COc1nc(C)ccc1-c1cc(Nc2cncc(O[C@@H]3CCCNC3)n2)[nH]n1` [Example 3, (R)-[5-(2-Methoxy-6-methyl-pyridin-3-yl)-2H-pyrazol-3-yl]-[6-(piperidin-3-yloxy)-pyrazin-2-yl]-amine acetic acid salt], the “Target Modulatory Effective Dose 50 (TMED50) for Chk1 autophosphorylation” value was 1.3 mg/kg.
